# According to patent US9815796B2 (Merck Sharp & Dohme Corp., priority 2013, dated 2017):
# Where two headings read alike, the source gives them in different places.
# Legend:
# Rhesus PDE2A3 = Rhesus PDE2A3 (Macaca mulatta, UniProt B3VTJ2); assay: PDE2 fluorescence polarization (IMAP FP) inhibition assay, rhesus enzyme; assay type: biochemical, rhesus macaque
# Method in brief: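 IMAP FP (mP from parallel and perpendicular fluorescence against substrate-only control) was read ≥1 h after adding binding reagent. The preceding 60 min room-temperature reaction contained FAM-cAMP (50 nM) and cGMP (1 uM) in pH 7.2 Tris buffer with MgCl2 and DTT. Enzyme was supernatant of sonicated AD293 cells expressing rhesus PDE2A3; compounds were 3-fold titrated, DMSO 1% final.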
# human PDE2A1 = human PDE2A1 (Homo sapiens (Human), UniProt O00408); assay: IMAP FP PDE selectivity panel, human PDE2A1; assay type: biochemical
# Method in brief: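 IMAP FP format: substrate 50 nM FAM-cAMP plus 1000 nM cGMP, enzyme (insect-cell GST-tagged human PDE2A1) at ~20% conversion, 60 min reaction at room temperature. Apparent inhibition constants calculated from parallel/perpendicular fluorescence with KM 10,000 nM.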
# [1] = Rhesus PDE2, Lab B, read-out: Rhesus PDE2 Ki (nM) - Lab B
# [2] = Human PDE2, Lab B, read-out: Human PDE2 Ki (nM) - Lab B
# [3] = Rhesus PDE2, Lab A, read-out: Rhesus PDE2 Ki (nM) - Lab A
# [4] = Human PDE2, Lab A, read-out: Human PDE2 Ki (nM) - Lab A
# Rhesus PDE2A3, sequence (B3VTJ2 1-941): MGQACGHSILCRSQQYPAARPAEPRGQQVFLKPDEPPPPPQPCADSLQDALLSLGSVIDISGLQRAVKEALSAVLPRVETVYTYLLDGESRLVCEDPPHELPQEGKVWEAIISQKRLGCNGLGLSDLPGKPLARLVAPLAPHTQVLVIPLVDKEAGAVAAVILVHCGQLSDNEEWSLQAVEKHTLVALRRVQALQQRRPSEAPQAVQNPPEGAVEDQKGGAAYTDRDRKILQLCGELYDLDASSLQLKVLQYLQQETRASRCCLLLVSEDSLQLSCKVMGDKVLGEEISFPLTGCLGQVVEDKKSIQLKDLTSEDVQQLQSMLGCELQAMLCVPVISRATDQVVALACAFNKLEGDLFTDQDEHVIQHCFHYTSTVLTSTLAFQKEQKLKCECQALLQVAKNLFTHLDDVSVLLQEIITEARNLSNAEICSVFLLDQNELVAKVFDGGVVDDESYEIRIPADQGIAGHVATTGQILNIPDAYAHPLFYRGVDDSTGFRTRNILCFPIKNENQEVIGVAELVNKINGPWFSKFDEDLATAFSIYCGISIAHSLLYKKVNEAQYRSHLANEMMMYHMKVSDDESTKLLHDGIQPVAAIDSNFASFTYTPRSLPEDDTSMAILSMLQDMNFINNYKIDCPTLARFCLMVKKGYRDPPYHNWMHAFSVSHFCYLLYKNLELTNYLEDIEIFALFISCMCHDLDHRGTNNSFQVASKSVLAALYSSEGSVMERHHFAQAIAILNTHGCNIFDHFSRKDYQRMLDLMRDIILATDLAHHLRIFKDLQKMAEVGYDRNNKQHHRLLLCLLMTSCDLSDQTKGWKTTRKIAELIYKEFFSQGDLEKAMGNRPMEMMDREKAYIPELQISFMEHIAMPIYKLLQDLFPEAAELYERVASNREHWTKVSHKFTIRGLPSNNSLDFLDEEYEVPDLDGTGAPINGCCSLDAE
# human PDE2A1, sequence (O00408 other isoform, or with tags, fused parts or gaps): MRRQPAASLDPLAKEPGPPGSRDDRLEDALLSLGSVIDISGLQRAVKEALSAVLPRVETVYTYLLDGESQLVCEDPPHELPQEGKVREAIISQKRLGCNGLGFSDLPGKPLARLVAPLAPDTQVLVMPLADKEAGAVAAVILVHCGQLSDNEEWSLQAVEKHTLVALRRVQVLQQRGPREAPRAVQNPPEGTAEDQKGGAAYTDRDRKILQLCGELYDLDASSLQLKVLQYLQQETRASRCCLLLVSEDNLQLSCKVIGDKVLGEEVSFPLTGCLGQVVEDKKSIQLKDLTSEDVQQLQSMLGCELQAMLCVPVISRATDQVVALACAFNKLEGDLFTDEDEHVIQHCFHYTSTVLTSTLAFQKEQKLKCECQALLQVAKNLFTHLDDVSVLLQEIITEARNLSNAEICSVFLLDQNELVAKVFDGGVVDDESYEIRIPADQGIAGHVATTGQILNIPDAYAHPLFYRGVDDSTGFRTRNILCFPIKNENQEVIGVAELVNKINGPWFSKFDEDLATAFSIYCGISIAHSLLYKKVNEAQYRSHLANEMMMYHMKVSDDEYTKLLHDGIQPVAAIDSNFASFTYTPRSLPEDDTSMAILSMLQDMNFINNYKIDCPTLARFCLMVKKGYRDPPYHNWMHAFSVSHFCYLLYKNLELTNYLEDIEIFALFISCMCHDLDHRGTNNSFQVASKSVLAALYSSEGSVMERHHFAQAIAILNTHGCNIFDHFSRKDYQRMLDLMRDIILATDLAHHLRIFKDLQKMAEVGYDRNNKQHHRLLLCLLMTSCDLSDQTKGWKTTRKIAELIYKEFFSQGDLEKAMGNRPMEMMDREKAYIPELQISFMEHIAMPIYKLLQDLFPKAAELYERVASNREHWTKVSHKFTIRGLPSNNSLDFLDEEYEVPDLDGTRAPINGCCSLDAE
Ki (Rhesus PDE2A3; [1]),Ki (human PDE2A1; [2]),Ki (Rhesus PDE2A3; [3]),Ki (human PDE2A1; [4]),Compound
4.1 nM,3.9 nM,–,–,"CC[C@@H](NC(=O)c1cc(=O)[nH]c(Cc2ccc(OC)c(F)c2)n1)c1ccc(S(F)(F)(F)(F)F)cc1 [Example 526, 2-(3-fluoro-4-methoxybenzyl)-6-oxo-N-{(1R)-1-[4-(pentafluoro-λ^6-sulfanyl)phenyl]propyl}-1,6-dihydropyrimidine-4-carboxamide]"
2 nM,2 nM,–,–,"Cc1nc(C(=O)N[C@@H](c2ccc(S(F)(F)(F)(F)F)cc2)C(C)(C)C)cc(=O)[nH]1 [Example 618, N-{(1R)-2,2-dimethyl-1-[4-(pentafluoro-λ^6-sulfanyl)phenyl]propyl}-2-methyl-6-oxo-1,6-dihydropyrimidine-4-carboxamide]"
–,–,9 nM,9.4 nM,"CC(NC(=O)c1cc(=O)[nH]c(-c2ccccc2)n1)c1ccc(C2CC2)cc1 (stereo not shown) [Example 164, N-[1-(4-cyclopropylphenyl)ethyl]-6-oxo-2-phenyl-1,6-dihydropyrimidine-4-carboxamide]"
1.4 nM,1.8 nM,–,–,"CC[C@@H](NC(=O)c1cc(=O)[nH]c(Cc2ccc(OC)cc2)n1)c1ccc(SC(F)(F)F)cc1 [Example 476, 2-(4-methoxybenzyl)-6-oxo-N-[(1R)-1-{4-[(trifluoromethyl)sulfanyl]phenyl}propyl]-1,6-dihydropyrimidine-4-carboxamide]"
2.3 nM,1.9 nM,–,–,"COc1ccc(Cc2nc(C(=O)N[C@@H](c3ccc(C(F)(F)F)cc3)C3CC3)cc(=O)[nH]2)cc1F [Example 525, N-{(R)-cyclopropyl[4-(trifluoromethyl)phenyl]methyl}-2-(3-fluoro-4-methoxybenzyl)-6-oxo-1,6-dihydropyrimidine-4-carboxamide]"
–,–,4.8 nM,3.1 nM,"O=C(NC1(c2ccc(OC(F)(F)F)c(F)c2)CC1)c1cc(=O)[nH]c(-c2ccccc2)n1 [Example 157, N-{1-[3-fluoro-4-(trifluoromethoxy)phenyl]cyclopropyl}-6-oxo-2-phenyl-1,6-dihydropyrimidine-4-carboxamide]"
4.7 nM,3.9 nM,–,–,"CC(C)[C@@H](NC(=O)c1cc(=O)[nH]c(-c2ccccc2)n1)c1ccc(S(F)(F)(F)(F)F)cc1 [Example 388, N-{(1R)-2-methyl-1-[4-(pentafluoro-λ^6-sulfanyl)phenyl]propyl}-6-oxo-2-phenyl-1,6-dihydropyrimidine-4-carboxamide]"
41 nM,41 nM,26 nM,–,"COc1ccc2cc(C(C)NC(=O)c3cc(=O)[nH]c(-c4ccccc4)n3)ccc2c1 (stereo not shown) [Example 378, N-[1-(6-methoxynaphthalen-2-yl)ethyl]-6-oxo-2-phenyl-1,6-dihydropyrimidine-4-carboxamide]"
48 nM,41 nM,–,–,"C[C@@H](NC(=O)c1cc(=O)[nH]c(-c2ccccc2)n1)c1ccc(Cl)cc1 [Example 418, N-[(1R)-1-(4-chlorophenyl)ethyl]-6-oxo-2-phenyl-1,6-dihydropyrimidine-4-carboxamide]"
8.2 nM,8.6 nM,–,–,"O=C(N[C@@H](c1ccc(S(F)(F)(F)(F)F)cc1)C1CC1)c1cc(=O)[nH]c(C2CC2)n1 [Example 397, 2-cyclopropyl-N-{(R)-cyclopropyl[4-(pentafluoro-λ^6-sulfanyl)phenyl]methyl}-6-oxo-1,6-dihydropyrimidine-4-carboxamide]"
–,–,11 nM,5.8 nM,"Cc1nc(C(=O)N[C@H](C)c2ccc(SC(F)(F)F)cc2)cc(=O)[nH]1 [Example 66, 2-methyl-6-oxo-N-[(1R)-1-{4-[(trifluoromethyl)sulfanyl]phenyl}ethyl]-1,6-dihydropyrimidine-4-carboxamide]"
–,–,89 nM,80 nM,"CCc1nc(C(=O)N[C@H](C)c2ccc(C(F)(F)F)cc2)c(CC)c(=O)[nH]1 [Example 333, (R)-2,5-diethyl-6-oxo-N-(1-(4-(trifluoromethyl)phenyl)ethyl)-1,6-dihydropyrimidine-4-carboxamide]"
